According to patent US20080305092A1, “Methods of treating autoimmune disease via CTLA-4IG” (THE REGENTS OF THE UNIVERSITY OF MICHIGAN, priority 1993, published 2008):

Tests used:
Jurkat line JHMI-2.2 = assay: Cell death of Jurkat cells, visual grading and trypan blue; format: cell-based, human; details: scored after 1 to 3 days; 9.3 mAb 10 μg/ml, carbacol 30 μM
Protocol: A series of experiments were done to test whether anti-CD28 mAb might prevent cell death in mature T cells. Jurkat leukemia cells are commonly used as an example of mature T cells that mimic physiologic effects found in peripheral blood T cells. […] The Jurkat line JHMI-2.2 was obtained from A. Weiss (UCSF); the muscarinic M1 receptor subtype has been transfected and is stably expressed in these cells. JHMI-2.2 cells, 0.3×10^6/well, were added to culture wells in complete medium, or to wells that contained plastic-adsorbed anti-CD3 mAb G19-4, in the presence or absence of 9.3 mAb 10 μg/ml, or 9.3 mAb alone. Cell death was scored after 1 to 3 days of culture and graded as 0 (none), 1+(20 to 70% of cells dead), and 2+(70 to 100% of cells dead), and was determined by visual inspection of the wells, and confirmed by trypan blue permeability.

[1] = system: CD28-stimulated IL-2 production of T cells; assay: CD28-stimulated IL-2 production with or without herbimycin A, bioassay; details: for IL-2: cells cultured in the single agent only, 24 h
Protocol: Cells. The CD28^+ subset of T cells was isolated from peripheral blood T lymphocytes by negative selection using immunoabsorption with goat anti-mouse Ig-coated magnetic particles as previously described in June, C. […] In some instances, T cells or Jurkat cells were cultured in complete media, or in complete media with 5 ng/ml PMA (Sigma Chemical Co., St. Louis, Mo.) or OKT3 beads (±5 beads/cell) before experiments.
To address the potential role of tyrosine kinases in CD28-triggered signaling, the effect of herbimycin A, an inhibitor of the src family protein tyrosine kinases (see Uehara, Y. et al., Biochem. Biophys. Res. Commun., 163:803 (1989)), on the CD28-triggered enhancement of IL-2 production was investigated. T cells were cultured overnight in the absence (depicted as open bars in FIG. 15) or presence (depicted as filled bars in FIG. 15) of herbimycin A (1 μM). […] Cell-free supernatant was collected, dialized to remove herbimycin A and serial dilutions were analyzed for IL-2 content by bioassay as described in June, J. Immunol., supra (1989).

CD28^+ T cells [2] = assay: Lymphokine secretion (IL-2, TNF-α/LT, IFN-γ, GM-CSF) by stimulated CD28+ T cells, with or without cyclosporine; format: cell-based, human; details: supernatant at 24 h; CSP 0.6 μg/ml where in label
CD28^+ T cells [3] = assay: Cell cycle analysis (S+G2+M), propidium iodide flow cytometry; format: cell-based, human; details: 48 h after stimulation
Protocol: In separate experiments, the relative levels of IL-2 for each of the culture conditions above were independently confirmed using a commercially available ELISA assay (Genzyme Corp., Boston, Mass.). TNF-α/LT levels were measured using a semi-automated L929 fibroblast lytic assay as previously described by Kunkel et al., J. Biol. Chem., 263:5380-5384 (1988). Units of TNF-α/LT were defined using an internal standard for TNF-α (Genzyme Corp., Boston Mass.). […] IFN-γ was measured by radioimmunoassay using a commercially available kit (Centocor, Malvern, Pa.). Units for IFN-γ were determined from a standard curve using ^125I-labeled human IFN-γ provided in the test kit. GM-CSF was detected by stimulation of proliferation of the human GM-CSF-dependent cell line AML-193, as described by Lange et al., Blood, 70:192-199 (1987), in the presence of neutralizing monoclonal antibodies to TNF-α and LT. The ^3H-thymidine uptake induced by 10 ng/ml of purified GM-CSF (Genetics Institute, Cambridge, Mass.) was defined as 100 U. Separate aliquots of cells were recovered 48 h after stimulation and assayed for the percentage of cells in late stages of the cell cycle (S+G2+M) by staining of cells with propidium iodide and analysis by flow cytometry as previously described by Thompson et al., Nature, 314:363-366 (1985). […]

CD28^+ T cells [4] = assay: IL-4, IL-5, IFN and IL-2 in supernatants by ELISA, initial stimulation and restimulation
CD28^+ T cells [5] = assay: T cell proliferation (3H-thymidine) in the presence of cyclosporine or dexamethasone; format: cell-based, human
Protocol: T cells, enriched by nylon wool filtration as described by Julius, et al., Euro. […] The above combinations also included […] titrations (from 25 ng/ml to 1.6 μg/ml) of cyclosporine (CSP) (Sandoz, Hanover, N.J.) dissolved in ethanol-Tween 80 as described by Wiesinger, et al., Immunobiol., 156:454-463 (1979).
^3H-thymidine incorporation was measured on day 3 of culture and the results representative of eight independent experiments are depicted in FIG. 3. […] Table 6 below illustrates the effects of cyclosporine on CD3-induced proliferation of CD28^+ T cells cultured at approximately 5×10^4 cells/well in flat-bottomed 96-well microtiter plates (CoStar, Cambridge, Mass.) under the following conditions: immobilized Mab G19-4; or immobilized mAb G19-4 and mAb 9.30 100 ng/ml; or immobilized mAb G19-4 and PMA 1 ng/ml; or Mab 9.3 100 ng/ml and PMA 1 ng/ml. Cyclosporine was prepared as above and included in the cultures at 0, 0.2, 0.4, 0.8, 1.2 μg/ml.
^3H-thymidine incorporation was determined on day 3 of culture as above. […] CD28^+ T cells cultured in the absence of cyclosporine were given cyclosporine diluent. ^3H-thymidine incorporation of cells cultured in medium, or PMA, or monoclonal antibody 9.3 only were less than 150 cpm.

[6] = system: CD28-induced tyrosine phosphorylation; assay: Anti-phosphotyrosine immunoblot of PMA-treated T cells; format: cell-based, human; details: T cells treated overnight with PMA 5 ng/ml and herbimycin A
Protocol: Immunoblot analysis of protein tyrosine phosphorylation. Details of the immunoblot assay with anti-phosphotyrosine antibodies has been described in Hsi, E. D. et al., J. Biol. Chem., 264:10836 (1989) and June, C. H. et al., J. Immunol., 144:1591 (1990). Cells were suspended at 5−10×10^7 cells/ml in reaction media, i.e., HBSS containing 0.8% FCS and 20 Mm Hepes at 37° C. at time—3 m and stimulated at time 0 m. mAbs were used at 10 μg/ml final concentration. For crosslinking, biotinylated mAbs were incubated with cells for 5-8 m at room temperature, the cells prewarmed at time 3 min and stimulated with avidin (Sigma Chemical Co.) at a final concentration of 40 μg/ml at time 0. Stimulation was terminated by the addition of ice-cold 10× lysis buffer, yielding a final concentration of 0.5% Triton X-100. See June, J. Immunol., supra (1990).
CD28-induced tyrosine phosphorylation prevented by CD45 and by herbimycin. […] T cells were treated overnight with PMA (5 ng/ml) in the presence of the indicated concentration of herbimycin A or in control medium. […] Detergent-soluble proteins were processed as previously described.
To address the effects of phosphatases on CD28-mediated signal transduction, T cells were cultured overnight with PMA (5 ng/ml). […] Monoclonal antibodies were crosslinked with avidin at time 0. The reaction was terminated after 2 m. […]

Daudi = assay: Cytotoxicity of activated cells against Daudi; format: cell-based, human
Protocol: (§1) One lytic unit is equivalent to 20% lysis of 5×10^3 target cells per 1×10^6 effector cells as discussed in Press, H. F. et al., J. Clin. Immunol. 1:51-83 (1981). Various targets, including Daudi and K562, were tested.
In 5 different subjects, PBL were compared with T cells (E^+) in their ability to kill Daudi, K562, and BSB cells 8 days after being activated with OKT3. These experiments were performed in X-Vivo 10 supplemented with 5% human serum (HS). […]
Cytotoxicity induced by soluble or immobilized OKT3. In 7 experiments, cytotoxicity mediated by T cells after activation was compared with soluble or immobilized OKT3. […] These experiments were performed with E^+ cells in RPMI 1640 supplemented with 10% fetal bovine serum (FBS). Cytotoxicity was assessed 7 to 8 days after triggering with soluble (10 ng/ml) or immobilized (2 μg/ml) OKT3.
Either soluble OKT3 10 ng/ml(s) or immobilized OKT3 (coated with 2 μg/ml)(I) were added as indicated. […]

PBL, T cells or BMMNC = assay: Proliferation and expansion of PBL, T cells or BMMNC after OKT3 activation; format: cell-based, human; details: for Proliferation ^3H incorp.: day 3
From the text: (§2) Cytotoxicity as a function of in vitro time in cell culture. […] Cytotoxicity was a strong function of culture duration however, with <0.1, 24, 3.5, 0.5, 1.0 LU at 0, 8, 15, 22, and 29 days of culture. Similar results were found when Daudi was the target, with <0.01, 23, 5, 2, and 5 LU at 0, 8, 15, 22, and 29 days of culture.
(§3) Although the BMMNC population initially contained only 25% CD3^+ cells, proliferative and cytotoxic responses were excellent after 2 weeks of culture. […] In 4 experiments using normal bone marrow or autologous bone marrow, there was a median of 89-fold expansion of cells (range 18- to 173-fold) after 9 to 19 days of culture. Mean cytotoxicity directed at Daudi and K562 mediated by BMMNC stimulated with OKT3 was 5.5 LU (range 2-11) and 4.3 LU (range 2-8), respectively. […] Either soluble OKT3 10 ng/ml(s) or immobilized OKT3 (coated with 2 μg/ml)(I) were added as indicated.
(§4) Proliferative and cytotoxic responses from 3 patients were tested. […] Proliferation was assessed on day 3 of culture and cytotoxicity on day 7.

K562 = assay: Cytotoxicity of activated cells against K562; format: cell-based, human
Protocol: as §1
In 5 different subjects, PBL were compared with T cells (E^+) in their ability to kill Daudi, K562, and BSB cells 8 days after being activated with OKT3. These experiments were performed in X-Vivo 10 supplemented with 5% human serum (HS). The mean cytotoxicity in 5 normal subjects using PBL directed at Daudi, K562, and BSB were 15.0, 7.4, and 9.2 LU, respectively. In T cells from the same 5 subjects, the mean cytotoxicity directed at Daudi, K562, and BSB were 14.3, 7.7, and 9.3 LU, respectively.
as §2
Cytotoxicity induced by soluble or immobilized OKT3. In 7 experiments, cytotoxicity mediated by T cells after activation was compared with soluble or immobilized OKT3. Both methods induced cytotoxicity directed at Daudi and K562. Soluble OKT3 activated T cells mediated a mean cytotoxicity of 27 LU (SD-18) directed at Daudi and a mean cytotoxicity of 21 LU (SD-16) directed at K562. Immobilized OKT3 activated T cells mediated a mean cytotoxicity of 22 LU (SD-16) directed at Daudi and a mean cytotoxicity of 12 LU (SD-8) directed at K562. These experiments were performed with E^+ cells in RPMI 1640 supplemented with 10% fetal bovine serum (FBS). Cytotoxicity was assessed 7 to 8 days after triggering with soluble (10 ng/ml) or immobilized (2 μg/ml) OKT3.
as §3, §4

[7] = RESTIMULATION after 8 days, further 24 h
[8] = BMMNC, 14 days after activation, 50 IU/ml IL-2
[9] = E+ cells, 7 to 8 days after triggering, 7 experiments, listed as Immobilized OKT3
[10] = E+ cells, 7 to 8 days after triggering, 7 experiments, listed as Soluble OKT3
[11] = PBL, 5 normal subjects, 8 days after activation

Compound: C[N+](C)(C)CCOC(N)=O [Carbacol, carbacol]
- CELL DEATH (GRADE 0-2) (Jurkat line JHMI-2.2): 1+ (1+(20 to 70% of cells dead))

Compound: C[C@H](CCC(=O)O)C[C@H](C)C[C@H](C)C(=O)/C=C(\O)[C@H](C)C[C@H](C)C/C=C/[C@@H](C)[C@@H](O)[C@@H](C)[C@@H](O)C[C@@H]1CC[C@@](C)([C@H]2CC[C@@](C)([C@@H](C)O)O2)O1 [Ionomycin, ionomycin]
- IL-2 [1]: < 10 U/ml
- IFN-γ (CD28^+ T cells [2]): 0 U/ml
- IL-2 (CD28^+ T cells [2]): <2 U/ml
- TNF-α/LT (CD28^+ T cells [2]): 0 U/ml
- S + G2 + M (CD28^+ T cells [3]): 6.6%

Compound: CCCCCCCCCCCCCC(=O)O[C@@H]1[C@@H](C)[C@@]2(O)[C@@H](C=C(CO)C[C@]3(O)C(=O)C(C)=C[C@@H]23)[C@@H]2C(C)(C)[C@]12OC(C)=O [PMA, phorbol myristate acetate]
- IL-2 [1]: < 10 U/ml
- IFN-γ (CD28^+ T cells [2]): 0 U/ml
- IL-2 (CD28^+ T cells [2]): <2 U/ml
- TNF-α/LT (CD28^+ T cells [2]): 0 U/ml
- IFN (CD28^+ T cells [4]; INITIAL, 24 h of culture): 152 pg/mL
- IL-2 (CD28^+ T cells [4]; INITIAL, 24 h of culture): .07 U/ml
- IL-4 (CD28^+ T cells [4]; INITIAL, 24 h of culture): <1 pg/mL
- IL-5 (CD28^+ T cells [4]; INITIAL, 24 h of culture): <1 pg/mL
- IFN (CD28^+ T cells [4]; [7]): <1 pg/mL
- IL-2 (CD28^+ T cells [4]; [7]): 0.6 U/ml
- IL-4 (CD28^+ T cells [4]; [7]): <1 pg/mL
- IL-5 (CD28^+ T cells [4]; [7]): <1 pg/mL
- ^3HTdR (CD28^+ T cells [5]; Dexamethasone 0 Nm): 5,000
- ^3HTdR (CD28^+ T cells [5]; Dexamethasone 25 Nm): 1,400
- ^3H-thymidine incorporation (CD28^+ T cells [5]; cells cultured with the single agent only): less than 150 cpm
- % INHIBIT (CD28^+ T cells [5]; inhibition of proliferation by dexamethasone): 72%
- S + G2 + M (CD28^+ T cells [3]): 5.5%

Compound: CO[C@H]1[C@@H](OC)C[C@H](C)[C@@H](OC)C2=CC(=O)C=C(NC(=O)/C(C)=C/C=C\[C@H](OC)[C@@H](OC(N)=O)/C(C)=C/[C@@H]1C)C2=O [herbimycin A]
- PMA plus ionomycin-stimulated IL-2 secretion ([1]; herbimycin A 1 μM): resistant
- Tyrosine phosphorylation induced by anti-CD28 mAb [6]: nearly completely prevented

Compound: OKT3: anti-CD3 mAb OKT3 (IgG2a), soluble or immobilized
- mean cytotoxicity directed at Daudi (Daudi; [8]): 5.5 LU
- mean cytotoxicity directed at Daudi (Daudi; [9]): 22 LU
- mean cytotoxicity directed at Daudi (Daudi; [10]): 27 LU
- mean cytotoxicity directed at Daudi (Daudi; [11]): 15.0 LU
- mean cytotoxicity directed at Daudi (Daudi; T cells (E+), same 5 subjects): 14.3 LU
- Proliferation ^3H incorp. (PBL, T cells or BMMNC; Bone Marrow #171, AML, Relapsed): 23,479 cpm
- Proliferation ^3H incorp. (PBL, T cells or BMMNC; PBL P#632, non-Hodgkins lymphoma, pre-transplant): 58,670 cpm
- Proliferation ^3H incorp. (PBL, T cells or BMMNC; PBL P#635, Hodgkins lymphoma, pre-transplant): 27,758 cpm
- median expansion of cells (PBL, T cells or BMMNC; normal or autologous bone marrow, 4 experiments, 9 to 19 days): 89 fold
- mean cytotoxicity directed at K562 (K562; [8]): 4.3 LU
- mean cytotoxicity directed at K562 (K562; [9]): 12 LU
- mean cytotoxicity directed at K562 (K562; [10]): 21 LU
- mean cytotoxicity directed at K562 (K562; [11]): 7.4 LU
- mean cytotoxicity directed at K562 (K562; T cells (E+), same 5 subjects): 7.7 LU
